In patent US20260138961A1, “MODULATORS OF MITOCHONDRIAL DNA REPLICATION” (Pretzel Therapeutics, Inc., priority 2022, published 2026):

target: T1, POLγA:G848S (Homo sapiens, UniProt P54098, G848S); test: DNA polymerization assay, POLγA:G848S mutant; format: biochemical; conditions: stimulation of polymerase activity, primed M13mp18 ssDNA, 37° C. 2 hours; read-out: G848S AC50
T1 sequence (P54098 1-1239 G848S): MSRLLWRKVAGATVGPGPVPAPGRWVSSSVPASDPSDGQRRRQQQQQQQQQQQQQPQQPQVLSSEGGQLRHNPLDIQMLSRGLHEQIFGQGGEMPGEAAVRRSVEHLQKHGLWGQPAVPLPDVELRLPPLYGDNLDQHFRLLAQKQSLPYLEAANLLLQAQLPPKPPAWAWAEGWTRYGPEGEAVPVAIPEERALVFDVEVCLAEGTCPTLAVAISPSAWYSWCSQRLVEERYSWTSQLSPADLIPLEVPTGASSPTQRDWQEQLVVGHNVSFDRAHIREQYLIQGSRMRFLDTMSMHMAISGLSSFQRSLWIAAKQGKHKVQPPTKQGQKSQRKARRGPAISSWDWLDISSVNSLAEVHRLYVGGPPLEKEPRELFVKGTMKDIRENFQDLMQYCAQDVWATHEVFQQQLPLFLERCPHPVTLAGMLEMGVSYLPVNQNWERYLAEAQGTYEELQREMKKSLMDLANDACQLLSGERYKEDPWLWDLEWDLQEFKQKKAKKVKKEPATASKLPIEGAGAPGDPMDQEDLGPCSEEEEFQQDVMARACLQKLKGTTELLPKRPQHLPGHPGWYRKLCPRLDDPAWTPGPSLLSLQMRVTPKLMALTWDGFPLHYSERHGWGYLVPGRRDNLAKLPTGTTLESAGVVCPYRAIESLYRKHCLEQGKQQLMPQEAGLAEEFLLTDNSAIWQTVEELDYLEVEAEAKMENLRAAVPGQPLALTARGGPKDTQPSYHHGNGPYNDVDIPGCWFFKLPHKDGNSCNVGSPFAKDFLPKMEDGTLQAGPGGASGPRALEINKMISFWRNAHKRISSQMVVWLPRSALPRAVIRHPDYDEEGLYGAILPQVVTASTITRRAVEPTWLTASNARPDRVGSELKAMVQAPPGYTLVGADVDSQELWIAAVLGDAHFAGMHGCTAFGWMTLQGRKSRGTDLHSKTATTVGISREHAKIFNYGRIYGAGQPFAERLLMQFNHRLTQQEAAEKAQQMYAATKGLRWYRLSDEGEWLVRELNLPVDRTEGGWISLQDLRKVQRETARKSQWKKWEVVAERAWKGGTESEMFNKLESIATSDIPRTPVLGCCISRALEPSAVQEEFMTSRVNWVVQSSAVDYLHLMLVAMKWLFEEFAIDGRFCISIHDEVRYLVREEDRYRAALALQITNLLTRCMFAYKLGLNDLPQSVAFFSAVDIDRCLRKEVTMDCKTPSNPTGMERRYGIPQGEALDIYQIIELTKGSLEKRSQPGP
T1 sequence (Q9UHN1 1-485 partner): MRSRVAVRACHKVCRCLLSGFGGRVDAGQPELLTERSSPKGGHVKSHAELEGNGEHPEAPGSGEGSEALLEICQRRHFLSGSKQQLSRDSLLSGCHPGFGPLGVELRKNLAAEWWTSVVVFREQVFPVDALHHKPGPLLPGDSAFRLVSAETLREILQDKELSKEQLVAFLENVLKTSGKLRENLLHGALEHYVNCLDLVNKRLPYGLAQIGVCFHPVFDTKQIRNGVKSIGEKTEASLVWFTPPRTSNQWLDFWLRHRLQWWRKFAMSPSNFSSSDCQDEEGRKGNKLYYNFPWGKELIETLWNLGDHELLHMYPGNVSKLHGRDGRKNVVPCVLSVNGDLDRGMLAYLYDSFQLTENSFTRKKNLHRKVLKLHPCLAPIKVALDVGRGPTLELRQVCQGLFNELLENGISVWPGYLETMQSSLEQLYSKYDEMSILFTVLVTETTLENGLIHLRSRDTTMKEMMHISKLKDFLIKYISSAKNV

Row | Structure (SMILES) | AC50
1 | Cc1cc(S(=O)(=O)Nc2csc(C(=O)N(C)CC(N)=O)n2)c(C)cc1Cl [Example 172, N-(2-amino-2-oxoethyl)-4-((4-chloro-2,5-dimethylphenyl)sulfonamido)-N-methylthiazole-2-carboxamide] | > 10 µM
2 | Cc1cc(S(=O)(=O)Nc2nc(-c3ccccc3)cn2C)c(C)cc1Cl [Example 159, 4-chloro-2,5-dimethyl-N-(1-methyl-4-phenyl-1H-imidazol-2-yl)benzenesulfonamide] | > 100 µM
3 | Cc1cc(S(=O)(=O)Nc2cc(F)cc(-c3nccs3)c2)c(C)cc1Cl [Example 62, 4-chloro-N-(3-fluoro-5-(thiazol-2-yl)phenyl)-2,5-dimethylbenzenesulfonamide] | > 100 µM
4 | N#CC1CSCCN1C(=O)c1cccc(NS(=O)(=O)c2cccc(C(F)(F)F)c2)c1 (stereo not drawn) [Example 35, N-(3-(3-cyanothiomorpholine-4-carbonyl)phenyl)-3-(trifluoromethyl)benzenesulfonamide] | > 100 µM
5 | Cc1cc(S(=O)(=O)N[C@H]2CCCN(c3ccccc3)C2)c(C)cc1Cl [Example 161, (S)-4-chloro-2,5-dimethyl-N-(1-phenylpiperidin-3-yl)benzenesulfonamide] | 31 µM
6 | Cc1cc(S(=O)(=O)Nc2cccc(C(=O)N3CCNCC3)c2)c(C)cc1Cl [Example 46, 4-chloro-2,5-dimethyl-N-(3-(piperazine-1-carbonyl)phenyl)benzenesulfonamide] | 91 µM
7 | Cc1ccc(C)c(S(=O)(=O)Nc2ccc(C(=O)NCC3CC3)cc2)c1 [Example 40, N-(cyclopropylmethyl)-4-((2,5-dimethylphenyl)sulfonamido)benzamide] | > 100 µM
8 | Cc1cc(S(=O)(=O)Nc2cccc(C(=O)N3CCN(CCO)CC3)c2)c(C)cc1Cl [Example 55, 4-chloro-N-(3-(4-(2-hydroxyethyl)piperazine-1-carbonyl)phenyl)-2,5-dimethylbenzenesulfonamide] | > 100 µM

Now from value to molecule:

Row | AC50 | Structure (SMILES)
9 | 2 µM | Cc1cnc(-c2cccc(NS(=O)(=O)c3cc(C)c(Cl)cc3C)c2)s1 [Example 21, 4-chloro-2,5-dimethyl-N-(3-(5-methylthiazol-2-yl)phenyl)benzenesulfonamide]
10 | 0.7 µM | Cc1cc(S(=O)(=O)Nc2csc(-c3ccn(C)n3)n2)c(C)cc1Cl [Example 181, 4-chloro-2,5-dimethyl-N-(2-(1-methyl-1H-pyrazol-3-yl)thiazol-4-yl)benzenesulfonamide]
11 | 2 µM | Cc1cc(S(=O)(=O)Nc2csc(-c3ccccn3)n2)c(C)cc1Cl [Example 173, 4-chloro-2,5-dimethyl-N-(2-(pyridin-2-yl)thiazol-4-yl)benzenesulfonamide]
12 | > 100 µM | Cc1ccc(C)c(S(=O)(=O)Nc2cncc(C(=O)N3CCOCC3)c2)c1 [Example 38, 2,5-dimethyl-N-(5-(morpholine-4-carbonyl)pyridin-3-yl)benzenesulfonamide]
